Results: US20110015226A1, “Treatment of Energy Utilization Disease” (SUMMIT CORPORATION PLC, priority 2008, published 2011)

What was measured:
[1] = tested on: N-acetyl-β-D-glucosaminidase (Bovine kidney); assay: Glycosidase inhibition: N-acetyl-β-D-glucosaminidase (Bovine kidney); assay type: biochemical; details: for % Nacetyl glucosaminidase inhibition at 0.8 mM Bovine kidney: approximately 0.8 mM; for IC50: read-out: IC50 Nacetyl glucosaminidase Bovine kidney;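 as to all read-outs here: enzyme activity followed by cleavage of the matching p-nitrophenyl glycoside (5 mM) in phosphate buffer set to the enzyme's optimal pH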
[2] = molecular target: T1, β-Glucuronidase Bovine liver (Bos taurus, UniProt A3KMY8); assay: Glycosidase inhibition: β-Glucuronidase Bovine liver; assay type: biochemical; details: for % Glucuronidase inhibition at 0.8 mM Bovine Liver: approximately 0.8 mM; for IC50: read-out: IC50 Glucuronidase Bovine Liver;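 as to all read-outs here: bovine liver β-glucuronidase acting on p-nitrophenyl β-D-glucuronide substrate in citric acid/disodium hydrogen phosphate buffer, pH 5.0, 27 °C, mean of triplicate runs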
T1 construct: The assay involved the use of Bovine liver β-glucuronidase; purchased Sigma; host or cells: bovine liver
T1 sequence (A3KMY8 1-652): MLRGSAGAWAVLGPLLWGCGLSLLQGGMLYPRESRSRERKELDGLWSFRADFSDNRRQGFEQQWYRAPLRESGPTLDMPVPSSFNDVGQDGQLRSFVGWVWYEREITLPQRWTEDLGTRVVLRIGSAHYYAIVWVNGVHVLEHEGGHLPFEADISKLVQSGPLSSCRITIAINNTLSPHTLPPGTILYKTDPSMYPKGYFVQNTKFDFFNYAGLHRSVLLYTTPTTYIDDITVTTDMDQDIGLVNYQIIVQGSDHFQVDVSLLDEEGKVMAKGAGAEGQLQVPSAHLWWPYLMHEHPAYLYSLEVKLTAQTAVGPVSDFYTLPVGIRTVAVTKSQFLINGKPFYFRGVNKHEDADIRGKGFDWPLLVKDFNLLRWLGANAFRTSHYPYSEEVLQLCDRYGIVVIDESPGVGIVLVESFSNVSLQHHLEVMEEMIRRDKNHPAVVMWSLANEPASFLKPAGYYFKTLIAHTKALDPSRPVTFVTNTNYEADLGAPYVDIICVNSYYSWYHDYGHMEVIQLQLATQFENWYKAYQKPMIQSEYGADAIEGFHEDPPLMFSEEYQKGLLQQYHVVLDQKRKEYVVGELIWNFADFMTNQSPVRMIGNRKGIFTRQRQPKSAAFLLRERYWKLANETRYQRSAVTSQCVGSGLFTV

| SMILES | % Nacetyl glucosaminidase inhibition at 0.8 mM Bovine kidney [1] [%] | % Glucuronidase inhibition at 0.8 mM Bovine Liver [2] [%] | IC50 [2] [µM] | IC50 [1] [µM] | Mean % Inhibition, N-acetyl-β-D-glucosaminidase Bovine kidney ([1]; 143 ug/ml) [%] | inhibition at 143 µg/mL ([2]; 143 ug/ml) [%] |
| --- | --- | --- | --- | --- | --- | --- |
| N[C@]1(C(=O)O)C[C@H](CO)C1 | 7.1 | −2.2 |  |  |  |  |
| O=C(O)[C@@H]1[C@@H](O)[C@H](O)[C@H]2[C@@H](O)CCN21 | 5.1 | −2.3 |  |  |  |  |
| CCC1CC(CC2CC(CCCC(C)C)[C@@H](CC)C(C)[C@H]2C)C(C)C(C)C1C (stereo partly drawn) | 49.4 | 3.9 |  |  |  |  |
| CN1C[C@H](O)C[C@H]1C(=O)O | −4.7 | −3.7 |  |  |  |  |
| C[N+]1([O-])CC[C@H](O)[C@@H]1C(=O)O (stereo partly drawn) | −0.6 | −4.4 |  |  |  |  |
| C[N+]1(C)C[C@@H](O)[C@H](O)[C@H]1C(=O)[O-] | 8 | 3.8 |  |  |  |  |
| O=C(O)[C@@]1(O)CNC[C@@H](O)[C@H]1O | 4.8 | 58.6 | 531 |  |  |  |
| CC(O)(CC(N)C(=O)O)C(=O)O (stereo not drawn) | −4.2 | −3.2 |  |  |  |  |
| C[N+]1(C)CCC[C@H]1C(=O)[O-] | 2.3 | −1.7 |  |  |  |  |
| CC(CC(N)C(=O)O)C(=O)O (stereo not drawn) | 0.8 | −1.6 |  |  |  |  |
| O=C(O)[C@]1(O)NC[C@@H](O)[C@H]1O | 2.9 | 1.4 |  |  |  |  |
| CC[C@@H]1C(C)[C@H](C)CN1CCCC(C)=O (stereo partly drawn) | 17 | −2 |  |  |  |  |
| O=C(O)CCC1[C@H](CO)C(=O)[C@H](O)[C@H]1CO (stereo partly drawn) | 90.1 | 85.3 | 81 | 5.1 |  |  |
| CC[C@@H]1C(=O)[C@H](O)CN1CCCCC(=O)O | 8 | 0.8 |  |  |  |  |
| C[C@@]1(C(=O)O)NC[C@H](O)[C@H]1O | 7.6 | 0.6 |  |  |  |  |
| O=C(O)[C@H]1NCC(O)C1O (stereo partly drawn) | 6.6 | 13.8 |  |  |  |  |
| O=C(O)[C@H]1N[C@H](CO)C(O)[C@H](O)[C@@H]1O (stereo partly drawn) | 25.8 | 3.3 |  |  |  |  |
| O=C(O)CN1C[C@@H](O)[C@@H](O)C1[C@@H](O)CO (stereo partly drawn) | 82.3 | 4 |  | 137 |  |  |
| CC(=O)NC1NC[C@H](C(=O)O)[C@H](O)[C@@H]1O (stereo partly drawn) | 57.9 | 97.9 | 7.3 |  |  |  |
| O=C(O)[C@H]1NC(=O)[C@H](O)[C@@H](O)[C@@H]1O | −5.2 | 99.6 | 0.04 |  |  |  |
| Cn1c(=O)c2c(ncn2C)n(C)c1=O [Caffeine, reference compound] |  |  |  |  | 1.3 | -2.4 |
| O=C(O)[C@H]1NC[C@H](O)[C@@H](O)[C@@H]1O [drawing 22] | 2.4 | 88.9 | 107 |  |  |  |
